Test results reported in patent US11319283B2, “Substituted cyclobutylbenzene compounds as indoleamine 2,3-dioxygenase (IDO) inhibitors” (MERCK SHARP & DOHME CORP., priority 2017, dated 2022).

Tests used:
Type in all cases: cell-based
IDO1 [1] = target: T1, IDO1 (Homo sapiens, UniProt P14902); test: IDO1 Cellular Assay in Hela Cells Stimulated with IFNγ; parameters: endogenous in cells; host or cells: HeLa cells stimulated with IFNγ (100 ng/mL); settings: Hela cells stimulated with IFNγ 100 ng/mL, 300 uM L-tryptophan, about 48 hours, fluorescence readout
T1 sequence (P14902 whole entry): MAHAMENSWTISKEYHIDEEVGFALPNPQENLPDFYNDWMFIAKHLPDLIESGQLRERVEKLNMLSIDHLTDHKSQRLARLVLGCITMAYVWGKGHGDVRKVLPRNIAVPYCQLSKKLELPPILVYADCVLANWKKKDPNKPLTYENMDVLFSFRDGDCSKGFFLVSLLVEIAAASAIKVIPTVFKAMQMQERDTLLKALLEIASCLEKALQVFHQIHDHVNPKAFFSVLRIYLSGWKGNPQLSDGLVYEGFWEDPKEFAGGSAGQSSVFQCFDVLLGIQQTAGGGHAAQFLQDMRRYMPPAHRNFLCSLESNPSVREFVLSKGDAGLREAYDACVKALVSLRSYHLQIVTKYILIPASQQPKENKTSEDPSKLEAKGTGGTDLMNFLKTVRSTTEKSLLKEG
Method: IDO1 Cellular Assay in Hela Cells Stimulated with IFNγ
Hela cells were cultured in complete Hela culture medium (90% EMEM, 10% heat-inactivated fetal bovine serum) and expanded to about 1×10^9 cells. The cells were then collected and frozen down at 1×10^7 cells/vial in 1 mL frozen medium (90% complete Hela culture medium, 10% DMSO)
Compounds to be tested were serially diluted in ten 3-fold steps in DMSO starting from 10 mM DMSO stocks in Echo low volume plate(s).
Frozen Hela cells were thawed and transferred into Hela assay medium (99% complete Hela culture medium, 1% Pen/Strep) with 20 mL medium/vial of cells. The cells were spun down at 250 g in a table top centrifuge for 5 min and suspended in same volume of Hela assay medium. The cells were then counted and adjusted to a density of 2×10^5 cells/ml in Hela assay medium. Sterile L-tryptophan were added to the cells with final concentration of 300 uM L-tryptophan. A small aliquot (2 mL/plate) of Hela cells were set aside and were not treated with IFNγ, to serve as the Max-E control.
Hela cells with and without IFNγ were dispensed to the respective wells of 384-well assay plates containing the compounds. The plates were incubated for about 48 hours at a 37° C., 5% CO2 incubator. Afterwards, […] of 0.5 M methyl isonipecotate in dimethyl sulfoxide were added into each well and the plates were sealed and incubated at 37° C. without CO2 overnight. The plates were centrifuged for 1 min at 200×g. The resulting fluorescence was measured in a Spectramax plate reader (Molecular Devices) with a 400 nm excitation filter and a 510 nm emission filter.
Potencies were calculated by linear least squares fit to the four parameter logistic IC50 equation.

IDO1 [2] = target: T1, IDO1; test: IDO1 Human Whole Blood Assay; parameters: from tissue; host or cells: human whole blood from healthy donors, stimulated with LPS and IFNγ; settings: LPS and IFNγ 100 ng/mL, overnight (18 h), kynurenine by LC/MS/MS
Method: IDO1 Human Whole Blood Assay
Compounds to be tested were serially diluted in ten 3-fold steps in DMSO starting from 10 mM. […] LPS and IFNγ was prepared in RPMI to a 10× of final conc. (1000 ng/mL), final concentration is 100 ng/mL.
Human whole blood was drawn in sodium heparin coated tubes from healthy internal donors. […] of blood was transferred to each of the wells of a v-bottom 96 well plate. […] of compound was transferred from intermediate dilution plate, and incubated for 15 min. 30 μL from stimulants was then transferred to blood and mixed thoroughly. Plate was covered with breathable membrane and incubated at 37° C. for overnight (18 h).
On day 2 isotope labeled standard of kynurenine and tryptophan was made in water at 10× concentration and […] was added to the blood at […] final concentration. The assay plates were centrifuged at 300×G for 10 min with no brake to separate plasma from red blood cells. […] of plasma samples was removed without disturbing red blood cells. Plasma was diluted with RPMI in 1:1 ratio and proteins were precipitated out with two volume of Acetonitrile. The plates was centrifuged at 4000×G for 60 min. 20 mL of supernatant was carefully transferred to a 384 well plate contain 40 mL of 0.1% formic acid in water and analyzed by LC/MS/MS.
LC/MS/MS analyses were performed using Thermo Fisher's LX4-TSQ Quantum Ultra system. This system consists of four Agilent binary high-performance liquid chromatography (HPLC) pumps and a TSQ Quantum Ultra triple quadruple MS/MS instrument. For each sample, […] were injected onto an Atlantis T3 column (2.1 mm×150 mm, […]) from Waters. The mobile phase gradient pumped at 0.8 mL/min was used to elute the analytes from the column at 25° C. […] Mobile phase A consisted of 0.1% formic acid in water. Mobile phase B consisted of 0.1% of formic acid in acetonitrile. Data was acquired in positive mode using a HESI interface. The operational parameters for the TSQ Quantum Ultra instrument were a spray voltage of 4000 V, capillary temperature of 380° C., vaporizer temperature 400° C., shealth gas 60 arbitrary units, Aux gas 20 arbitrary units, tube lens 85 and collision gas 1.2 mTorr. […] The peak area was integrated by Xcalibur Quan software. The ratios between the kynurenine generated in the reaction and 2D6-Kynurenine spiked-in internal standard were used to generate percentage inhibition and IC50 values. Compounds were titrated and IC50's were calculated by 4 parameter sigmoidal curve fitting formula.

TDO = target: T2, TDO (Homo sapiens, UniProt P48775); test: TDO Cellular Assay in Frozen SW48 Cells; settings: 300 uM L-tryptophan, about 48 hours, fluorescence readout
T2 construct: endogenous in cells; host or cells: SW48 cells (A2780 cells as control with minimal TDO activity)
T2 sequence (P48775 whole entry): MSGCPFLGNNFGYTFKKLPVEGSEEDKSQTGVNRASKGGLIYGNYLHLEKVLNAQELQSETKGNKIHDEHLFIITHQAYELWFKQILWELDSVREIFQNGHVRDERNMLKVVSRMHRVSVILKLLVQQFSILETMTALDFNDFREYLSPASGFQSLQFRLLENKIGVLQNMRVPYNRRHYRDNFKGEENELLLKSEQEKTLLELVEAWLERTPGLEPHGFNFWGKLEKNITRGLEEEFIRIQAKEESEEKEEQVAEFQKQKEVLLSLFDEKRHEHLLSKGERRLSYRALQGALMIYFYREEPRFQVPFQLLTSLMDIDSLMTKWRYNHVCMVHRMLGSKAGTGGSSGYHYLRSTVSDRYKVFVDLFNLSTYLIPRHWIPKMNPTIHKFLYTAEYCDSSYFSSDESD
Method: TDO Cellular Assay in Frozen SW48 Cells
SW48 cells were cultured in complete RPMI culture medium (90% RPMI, 10% heat-inactivated fetal bovine serum).
Compounds to be tested were serially diluted in ten 3-fold steps in DMSO starting from 10 mM DMSO stocks in Echo low volume plate(s). […] The cells were spun down at 350 g in a table top centrifuge for 5 minutes and suspended in same volume of RPMI assay medium. […] Sterile L-tryptophan (Sigma, Cat # T0254) was added to the cells with final concentration of 300 uM.
SW48 and A2780 cells were dispensed to the respective wells of 384-well assay plates containing the compounds. The plates were incubated for about 48 hours at a 37° C., 5% CO2 incubator. Afterwards, 12 μL of 0.5 M ethyl isonipecotate (Sigma Aldrich, Cat # E33505) in dimethyl sulfoxide were added into each well and the plates were sealed and incubated at 37° C. without CO2 overnight. The plates were centrifuged for 1 minute at 200×g. The resulting fluorescence was measured in a Spectramax plate reader (Molecular Devices) with a 400 nm excitation filter and a 510 nm emission filter.
The fluorescence intensity of each well was corrected for the background observed in wells with A2780 cells and was expressed as a fraction of the intensity observed in wells of SW48 cells and DMSO only. Potencies were calculated by linear least squares fit to the four parameter logistic IC50 equation.

Row | SMILES | IC50 (IDO1 [1]) [nM] | IC50 (IDO1 [2]) [nM] | IC50 (TDO) [nM]
1 | CC1CC1NC(=O)C1(c2ccc(NC(=O)c3cccc(Cl)c3)cc2)CCC1 (single isomer, unassigned) [Example 21, 3-chloro-N-(4-(1-((2-methylcyclopropyl)carbamoyl)cyclobutyl)phenyl)benzamide] | 7 | 797 | ≥ 10000
2 | N#Cc1ccc(C(=O)NC2(c3ccc(NC(=O)c4cccc(Cl)c4)cc3)CCC2)cc1 [Example 2, 3-Chloro-N-(4-(1-(4-cyanobenzamido)cyclobutyl)phenyl)benzamide] | 3 | 186 | ≥ 10000
3 | O=C(Nc1ccc(C2(NC(=O)c3ccc(Cl)nc3)CCC2)cc1)c1cccc(Cl)c1 [Example 7, 6-chloro-N-(1-{4-[(3-chlorobenzene-1-carbonyl)amino]phenyl}cyclobutyl)pyridine-3-carboxamide] | 4 | 345 | ≥ 10000
4 | O=C(Nc1ccc(C2(NC(=O)c3ccc(Cl)cc3)CCC2)cc1)c1cccc(Cl)c1 [Example 19, 3-Chloro-N-(4-(1-(4-chlorobenzamido)cyclobutyl)phenyl)benzamide] | 2 | 336 | ≥ 10000
5 | O=C(Nc1ccc(C2(C(=O)Nc3ccc(F)cn3)CCC2)cc1)c1cccc(Cl)c1 [Example 28, 3-chloro-N-(4-{1-[(5-fluoropyridin-2-yl)carbamoyl]cyclobutyl}phenyl)benzamide] | 4 | 253 | ≥ 10000
6 | O=C(Nc1ccc(C2(C(=O)NC3CCCCC3)CCC2)cc1)c1cccc(Cl)c1 [Example 30, 3-chloro-N-{4-[1-(cyclohexylcarbamoyl)cyclobutyl]phenyl} benzamide] | 5 | 795 | ≥ 10000
7 | O=C(Nc1ccc(C2(C(=O)N[C@@H]3C[C@H]3C(F)(F)F)CCC2)cc1)c1cccc(Cl)c1 [Example 32] | 12 | 738 | ≥ 10000
8 | O=C(Nc1ccc(C2(C(=O)NC3CCC(F)(F)CC3)CCC2)cc1)c1cccc(Cl)c1 [Example 33, 3-chloro-N-(4-{1-[(4,4-difluorocyclohexyl)carbamoyl]cyclobutyl}phenyl) benzamide] | 15 | 1880 | ≥ 10000
9 | Cn1ccc(NC(=O)C2(c3ccc(NC(=O)c4cccc(Cl)c4)cc3)CCC2)n1 [Example 35, 3-chloro-N-(4-{1-[(1-methyl-1H-pyrazol-3-yl)carbamoyl]cyclobutyl}phenyl)benzamide] | 24 | 1600 | ≥ 10000
10 | O=C(Nc1ccc(C2(C(=O)Nc3ccc(F)cc3)CC(F)(F)C2)cc1)c1cccc(Cl)c1 [Example 63, 3-chloro-N-(4-(3,3-difluoro-1-((4-fluorophenyl)carbamoyl)cyclobutyl)phenyl)benzamide] | 2 | 70 | ≥ 10000
11 | CCCNC(=O)C1(c2ccc(NC(=O)c3cc(Cl)cc(Cl)c3)cc2)CCC1 [Example 80, 3,5-dichloro-N-{4-[1-(propylcarbamoyl)cyclobutyl]phenyl}benzamide] | 12 |  | ≥ 10000
12 | CCCNC(=O)C1(c2ccc(NC(=O)c3ccc(Cl)c(Cl)c3)cc2)CCC1 [Example 81, 3,4-dichloro-N-{4-[1-(propylcarbamoyl)cyclobutyl]phenyl}benzamide] | 13 |  | ≥ 10000
13 | O=C(Nc1ccc(C2(C(=O)NCCC(F)(F)F)CCC2)cc1F)c1cccc(Cl)c1 [Example 82, 3-Chloro-N-(2-fluoro-4-(1-((3,3,3-trifluoropropyl)carbamoyl)cyclobutyl)phenyl)benzamide] | 117 |  | ≥ 10000
14 | O=C(Nc1ccc(C2(C(=O)NCCC(F)(F)F)CCC2)cc1CO)c1cccc(Cl)c1 [Example 83, 3-Chloro-N-(2-(hydroxymethyl)-4-(1-((3,3,3-trifluoropropyl)carbamoyl)cyclobutyl)phenyl)benzamide] | 128 |  | ≥ 10000
15 | CC(C)(C)/N=C/c1cc(C2(C(=O)NCCC(F)(F)F)CCC2)ccc1NC(=O)c1cccc(Cl)c1 [Example 84, N-(2-[(E)-(tert-butylimino)melhyl]-4-{1-[(3,3,3-trifluoropropyl)carbamoyl]cyclobutyl}phenyl)-3-chlorobenzamide] | 176 |  | ≥ 10000
16 | O=C(Nc1ccc(C2(C(=O)Nc3ccc(F)cn3)CCC2)cc1CO)c1cccc(Cl)c1 [Example 85, 3-chloro-N-[4-{1-[(5-fluoropyridin-2-yl)carbamoyl]cyclobutyl}-2-(hydroxymethyl)phenyl] benzamide] | 5 | 219 | ≥ 10000
17 | CCCNC(=O)C1(c2ccc(NC(=O)C3Cc4ccccc43)cc2)CCC1 (stereo not drawn) [Example 87, N-{4-[1-(propylcarbamoyl)cyclobutyl]phenyl}bicyclo[4.2.0]octa-1,3,5-triene-7-carboxamide] | 1050 |  | ≥ 10000
18 | N#Cc1cccc(C(=O)Nc2ccc(C3(C(=O)Nc4ccc(Cl)nc4)CCC3)cc2)c1 [Example 88, N-(4-{1-[(6-chloropyridin-3-yl)carbamoyl]cyclobutyl}phenyl)-3-cyanobenzamide] | 2 | 57 | ≥ 10000
